Here are results for 4 compounds from ChEMBL document CHEMBL1145368, “Directed molecular screening for RecA ATPase inhibitors” (Bioorg Med Chem Lett, 2007).

Experiment [1] is described as follows: (§1) Inhibition of Escherichia coli RecA by ADP-linked fluorescent ATPase assay.
Experiment [2] deals with Escherichia coli. Briefly: Inhibition of RecA-mediated DNA strand exchange reaction assessed as abrogation of nicked circular dsDNA formation at 100 uM.
Experiment [3] has as its system Escherichia coli. The experiment is described as §1.

Active and inactive are the calls of the source. The calls are words filed in the database; no cut-off is given here.

What is called IC50 is the point on the concentration scale where inhibition reaches its midpoint. A low value points to higher potency.

Take `Cc1ccc(C(=O)Nc2ccc(S(=O)(=O)O)c3cc(S(=O)(=O)O)cc(S(=O)(=O)O)c23)cc1NC(=O)c1cccc(NC(=O)Nc2cccc(C(=O)Nc3cc(C(=O)Nc4ccc(S(=O)(=O)O)c5cc(S(=O)(=O)O)cc(S(=O)(=O)O)c45)ccc3C)c2)c1` [SURAMIN]: in experiment [1], the IC50 is 2000 nM. For the same compound, in the experiment on Escherichia coli [2], the outcome was Active.

As to `COc1cc(/C=C/C(=O)CC(=O)/C=C/c2ccc(O)c(OC)c2)ccc1O`, in the experiment on Escherichia coli [3], the result was inactive.

On to `Nc1c(/N=N/c2ccc(-c3ccc(/N=N/c4cc(S(=O)(=O)O)c5ccccc5c4N)cc3)cc2)cc(S(=O)(=O)O)c2ccccc12`, for which the outcome in the experiment on Escherichia coli [3] was Active.

For the compound `O=S(=O)(O)c1cccc2c(-c3ccc(Nc4ccccc4)c4c(S(=O)(=O)O)cccc34)ccc(Nc3ccccc3)c12`, the outcome with Escherichia coli [3] was Active.
